Experiments:
[1] = target: Tyrosine-protein kinase Tec (Homo sapiens) (UniProt P42680); details: Compound concentration 1000.0 nM
[2] = tested on: Tyrosine-protein kinase ABL1 (Homo sapiens), P00519 [M351T]; details: Compound concentration 1000.0 nM
[3] = tested on: Tyrosine-protein kinase ABL1 (Homo sapiens), P00519 [T315I]; details: Compound concentration 1000.0 nM
[4] = target: Receptor-type tyrosine-protein kinase FLT3 (Homo sapiens) (UniProt P36888); details: Compound concentration 1000.0 nM
[5] = target: Cyclin-dependent kinase 9 (Homo sapiens) (UniProt P50750); details: Compound concentration 1000.0 nM
[6] = target: Serine/threonine-protein kinase WNK1 (Homo sapiens) (UniProt Q9H4A3); details: Compound concentration 1000.0 nM
Serine/threonine-protein kinase WNK1 (Homo sapiens), sequence (Q9H4A3 whole entry, looked up): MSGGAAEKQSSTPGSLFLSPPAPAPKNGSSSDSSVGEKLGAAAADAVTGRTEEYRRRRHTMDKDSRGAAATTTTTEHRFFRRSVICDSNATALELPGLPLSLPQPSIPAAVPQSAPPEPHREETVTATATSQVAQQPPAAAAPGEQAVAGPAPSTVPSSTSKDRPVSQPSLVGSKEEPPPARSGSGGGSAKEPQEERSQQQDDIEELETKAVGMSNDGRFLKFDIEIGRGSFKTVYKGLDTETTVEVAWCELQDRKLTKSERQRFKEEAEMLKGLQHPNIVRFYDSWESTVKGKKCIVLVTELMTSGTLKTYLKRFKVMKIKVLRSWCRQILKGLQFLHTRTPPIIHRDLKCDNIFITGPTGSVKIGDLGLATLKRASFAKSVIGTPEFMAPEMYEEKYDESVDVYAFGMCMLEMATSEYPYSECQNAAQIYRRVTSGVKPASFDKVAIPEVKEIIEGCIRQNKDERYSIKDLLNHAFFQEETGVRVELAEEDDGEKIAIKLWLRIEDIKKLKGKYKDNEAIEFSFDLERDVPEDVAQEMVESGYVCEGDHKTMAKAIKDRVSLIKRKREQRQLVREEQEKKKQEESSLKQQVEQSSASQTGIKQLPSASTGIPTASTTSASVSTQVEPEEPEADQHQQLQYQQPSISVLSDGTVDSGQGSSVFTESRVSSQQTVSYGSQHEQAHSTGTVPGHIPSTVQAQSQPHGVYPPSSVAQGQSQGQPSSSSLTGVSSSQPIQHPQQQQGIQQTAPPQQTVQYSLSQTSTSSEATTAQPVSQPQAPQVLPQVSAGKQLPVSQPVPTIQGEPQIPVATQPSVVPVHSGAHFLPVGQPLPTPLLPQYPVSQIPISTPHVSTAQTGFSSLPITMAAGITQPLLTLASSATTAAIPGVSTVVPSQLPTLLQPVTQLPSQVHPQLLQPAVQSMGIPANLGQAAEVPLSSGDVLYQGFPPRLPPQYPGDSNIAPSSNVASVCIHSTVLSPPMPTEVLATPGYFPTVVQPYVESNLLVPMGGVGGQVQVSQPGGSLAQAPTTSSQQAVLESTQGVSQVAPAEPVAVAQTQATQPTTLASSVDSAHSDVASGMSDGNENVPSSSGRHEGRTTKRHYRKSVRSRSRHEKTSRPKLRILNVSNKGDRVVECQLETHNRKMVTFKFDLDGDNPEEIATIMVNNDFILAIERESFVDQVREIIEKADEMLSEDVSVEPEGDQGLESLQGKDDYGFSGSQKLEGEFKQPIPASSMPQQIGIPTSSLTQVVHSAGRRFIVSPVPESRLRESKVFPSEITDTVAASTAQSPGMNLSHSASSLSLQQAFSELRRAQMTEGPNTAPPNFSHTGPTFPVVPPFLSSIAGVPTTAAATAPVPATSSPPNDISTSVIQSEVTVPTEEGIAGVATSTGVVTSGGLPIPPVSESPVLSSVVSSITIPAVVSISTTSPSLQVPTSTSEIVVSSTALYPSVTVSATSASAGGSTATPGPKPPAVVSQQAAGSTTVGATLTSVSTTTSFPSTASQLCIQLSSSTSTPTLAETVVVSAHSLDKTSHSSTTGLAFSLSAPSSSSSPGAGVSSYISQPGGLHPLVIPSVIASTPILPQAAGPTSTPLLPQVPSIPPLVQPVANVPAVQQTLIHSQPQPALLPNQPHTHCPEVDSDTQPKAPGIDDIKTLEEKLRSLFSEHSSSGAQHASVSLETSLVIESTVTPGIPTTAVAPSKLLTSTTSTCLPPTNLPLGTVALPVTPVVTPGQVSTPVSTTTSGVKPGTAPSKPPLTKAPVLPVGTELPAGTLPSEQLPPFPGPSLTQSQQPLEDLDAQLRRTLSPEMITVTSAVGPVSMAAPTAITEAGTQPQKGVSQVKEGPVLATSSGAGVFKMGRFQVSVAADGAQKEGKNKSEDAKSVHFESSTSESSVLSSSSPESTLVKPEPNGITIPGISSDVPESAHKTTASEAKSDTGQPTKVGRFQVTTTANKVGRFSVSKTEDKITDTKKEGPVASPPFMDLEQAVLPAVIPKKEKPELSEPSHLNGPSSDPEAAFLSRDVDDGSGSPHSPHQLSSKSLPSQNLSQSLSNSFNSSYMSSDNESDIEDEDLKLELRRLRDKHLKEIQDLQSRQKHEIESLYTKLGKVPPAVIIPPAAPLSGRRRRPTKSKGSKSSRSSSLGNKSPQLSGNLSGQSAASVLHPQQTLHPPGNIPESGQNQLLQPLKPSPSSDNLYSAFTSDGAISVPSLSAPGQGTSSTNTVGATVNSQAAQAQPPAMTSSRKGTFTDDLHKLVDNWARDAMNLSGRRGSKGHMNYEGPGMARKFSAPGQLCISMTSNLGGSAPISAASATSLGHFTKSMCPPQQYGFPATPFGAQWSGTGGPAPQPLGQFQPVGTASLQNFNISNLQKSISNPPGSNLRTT

[7] = target: Cyclin-dependent kinase 7 (Homo sapiens) (UniProt P50613); details: Compound concentration 1000.0 nM
[8] = target: Homeodomain-interacting protein kinase 2 (Homo sapiens) (UniProt Q9H2X6); details: Compound concentration 1000.0 nM
[9] = target: Serine/threonine-protein kinase 38 (Homo sapiens) (UniProt Q15208); details: Compound concentration 1000.0 nM
[10] = target: Serine/threonine-protein kinase PAK 2 (Homo sapiens) (UniProt Q13177); details: Compound concentration 1000.0 nM
[11] = target: Serine/threonine-protein kinase DCLK1 (Homo sapiens) (UniProt O15075); details: Compound concentration 1000.0 nM
Serine/threonine-protein kinase DCLK1 (Homo sapiens), sequence (O15075 whole entry): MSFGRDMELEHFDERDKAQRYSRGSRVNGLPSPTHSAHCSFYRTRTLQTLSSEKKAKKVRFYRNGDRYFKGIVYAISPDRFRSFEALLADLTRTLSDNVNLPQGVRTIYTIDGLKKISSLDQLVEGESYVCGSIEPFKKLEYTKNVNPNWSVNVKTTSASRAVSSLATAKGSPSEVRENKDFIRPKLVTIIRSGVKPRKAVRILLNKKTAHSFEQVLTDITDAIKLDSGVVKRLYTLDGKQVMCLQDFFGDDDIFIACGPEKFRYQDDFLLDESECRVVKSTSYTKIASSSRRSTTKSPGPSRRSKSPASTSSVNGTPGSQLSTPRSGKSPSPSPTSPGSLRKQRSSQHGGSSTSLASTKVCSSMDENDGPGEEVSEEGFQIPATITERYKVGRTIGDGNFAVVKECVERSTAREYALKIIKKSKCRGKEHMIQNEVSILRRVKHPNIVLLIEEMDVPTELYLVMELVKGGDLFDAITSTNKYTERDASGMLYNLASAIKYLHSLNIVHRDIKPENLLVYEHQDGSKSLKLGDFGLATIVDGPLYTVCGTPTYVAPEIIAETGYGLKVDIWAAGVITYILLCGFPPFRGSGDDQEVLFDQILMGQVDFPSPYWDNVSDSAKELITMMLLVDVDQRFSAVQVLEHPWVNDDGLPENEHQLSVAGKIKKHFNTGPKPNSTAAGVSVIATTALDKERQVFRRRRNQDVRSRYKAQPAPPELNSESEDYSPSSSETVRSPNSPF

[12] = target: Serine/threonine-protein kinase MARK2 (Homo sapiens) (UniProt Q7KZI7); details: Compound concentration 1000.0 nM
[13] = target: Ephrin type-A receptor 5 (Homo sapiens) (UniProt P54756); details: Compound concentration 1000.0 nM
[14] = tested on: ALK tyrosine kinase receptor (Homo sapiens), Q9UM73 [L1196M]; details: Compound concentration 1000.0 nM
[15] = target: Cyclin-G-associated kinase (Homo sapiens) (UniProt O14976); details: Compound concentration 1000.0 nM
[16] = target: Phosphatidylinositol 5-phosphate 4-kinase type-2 beta (Homo sapiens) (UniProt P78356); details: Compound concentration 1000.0 nM
[17] = target: T1, Alpha-2C adrenergic receptor (Homo sapiens) (UniProt P18825); details: Compound concentration 10.0 uM
T1 sequence (whole entry): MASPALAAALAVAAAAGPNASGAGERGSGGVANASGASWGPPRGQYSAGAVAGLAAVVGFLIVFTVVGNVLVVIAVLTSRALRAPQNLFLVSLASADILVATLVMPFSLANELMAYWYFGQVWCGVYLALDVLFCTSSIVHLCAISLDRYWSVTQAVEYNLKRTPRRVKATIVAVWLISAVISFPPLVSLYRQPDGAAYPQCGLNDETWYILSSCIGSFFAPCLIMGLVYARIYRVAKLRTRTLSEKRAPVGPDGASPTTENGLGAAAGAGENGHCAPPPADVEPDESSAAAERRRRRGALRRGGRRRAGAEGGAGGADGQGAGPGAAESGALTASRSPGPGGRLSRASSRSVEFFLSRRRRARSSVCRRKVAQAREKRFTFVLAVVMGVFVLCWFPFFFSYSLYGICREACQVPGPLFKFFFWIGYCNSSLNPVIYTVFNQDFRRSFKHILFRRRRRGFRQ

[18] = target: Tyrosine-protein kinase ITK/TSK (Homo sapiens) (UniProt Q08881); details: Compound concentration 1000.0 nM
[19] = tested on: Receptor-type tyrosine-protein kinase FLT3 (Homo sapiens), P36888 [R834Q]; details: Compound concentration 1000.0 nM
[20] = target: Serine/threonine-protein kinase BRSK1 (Homo sapiens) (UniProt Q8TDC3); details: Compound concentration 1000.0 nM
Serine/threonine-protein kinase BRSK1 (Homo sapiens), sequence (Q8TDC3 whole entry): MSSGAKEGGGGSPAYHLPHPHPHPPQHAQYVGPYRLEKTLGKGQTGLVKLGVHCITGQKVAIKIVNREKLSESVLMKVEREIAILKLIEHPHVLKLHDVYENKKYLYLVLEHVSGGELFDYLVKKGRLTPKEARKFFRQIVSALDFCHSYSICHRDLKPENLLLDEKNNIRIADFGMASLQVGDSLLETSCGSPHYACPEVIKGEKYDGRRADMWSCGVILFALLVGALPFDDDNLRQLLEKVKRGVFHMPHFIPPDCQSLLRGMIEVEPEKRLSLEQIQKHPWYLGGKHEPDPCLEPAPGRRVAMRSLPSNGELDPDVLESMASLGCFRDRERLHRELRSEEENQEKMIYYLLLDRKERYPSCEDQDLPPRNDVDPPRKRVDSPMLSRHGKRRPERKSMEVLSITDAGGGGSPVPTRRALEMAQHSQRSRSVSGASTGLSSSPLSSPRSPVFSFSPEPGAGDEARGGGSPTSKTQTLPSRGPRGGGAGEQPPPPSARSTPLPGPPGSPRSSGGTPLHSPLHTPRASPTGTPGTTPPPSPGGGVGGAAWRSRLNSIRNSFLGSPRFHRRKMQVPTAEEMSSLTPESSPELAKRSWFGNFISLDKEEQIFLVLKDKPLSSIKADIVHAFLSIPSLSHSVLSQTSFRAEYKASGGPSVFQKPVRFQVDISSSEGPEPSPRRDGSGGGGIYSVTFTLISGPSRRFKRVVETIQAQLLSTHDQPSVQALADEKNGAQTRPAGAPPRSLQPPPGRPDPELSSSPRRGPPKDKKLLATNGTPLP

[21] = target: Tyrosine-protein kinase Srms (Homo sapiens) (UniProt Q9H3Y6); details: Compound concentration 1000.0 nM
[22] = target: 5-hydroxytryptamine receptor 1E (Homo sapiens) (UniProt P28566); details: Compound concentration 10.0 uM
5-hydroxytryptamine receptor 1E (Homo sapiens), sequence (P28566 whole entry): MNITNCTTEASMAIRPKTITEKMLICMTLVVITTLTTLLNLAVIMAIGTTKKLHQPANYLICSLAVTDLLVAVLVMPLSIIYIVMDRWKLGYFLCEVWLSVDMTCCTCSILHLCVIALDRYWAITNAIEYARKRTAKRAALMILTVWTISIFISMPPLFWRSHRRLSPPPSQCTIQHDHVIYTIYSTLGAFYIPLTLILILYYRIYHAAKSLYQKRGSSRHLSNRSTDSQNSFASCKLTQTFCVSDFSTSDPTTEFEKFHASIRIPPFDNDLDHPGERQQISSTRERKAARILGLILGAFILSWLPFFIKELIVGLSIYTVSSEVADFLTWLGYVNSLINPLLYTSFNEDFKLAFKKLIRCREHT

[23] = target: Tyrosine-protein kinase receptor TYRO3 (Homo sapiens) (UniProt Q06418); details: Compound concentration 1000.0 nM
[24] = target: Calcium/calmodulin-dependent protein kinase type II subunit gamma (Homo sapiens) (UniProt Q13555); details: Compound concentration 1000.0 nM
[25] = target: Inhibitor of nuclear factor kappa-B kinase subunit beta (Homo sapiens) (UniProt O14920); details: Compound concentration 1000.0 nM
[26] = target: Ephrin type-B receptor 3 (Homo sapiens) (UniProt P54753); details: Compound concentration 1000.0 nM
[27] = target: Serine/threonine-protein kinase Nek11 (Homo sapiens) (UniProt Q8NG66); details: Compound concentration 1000.0 nM
[28] = target: Serine/threonine-protein kinase 17A (Homo sapiens) (UniProt Q9UEE5); details: Compound concentration 1000.0 nM
[29] = target: T2, 5-hydroxytryptamine receptor 3A (Homo sapiens) (UniProt P46098); details: Compound concentration 10.0 uM
T2 sequence (whole entry): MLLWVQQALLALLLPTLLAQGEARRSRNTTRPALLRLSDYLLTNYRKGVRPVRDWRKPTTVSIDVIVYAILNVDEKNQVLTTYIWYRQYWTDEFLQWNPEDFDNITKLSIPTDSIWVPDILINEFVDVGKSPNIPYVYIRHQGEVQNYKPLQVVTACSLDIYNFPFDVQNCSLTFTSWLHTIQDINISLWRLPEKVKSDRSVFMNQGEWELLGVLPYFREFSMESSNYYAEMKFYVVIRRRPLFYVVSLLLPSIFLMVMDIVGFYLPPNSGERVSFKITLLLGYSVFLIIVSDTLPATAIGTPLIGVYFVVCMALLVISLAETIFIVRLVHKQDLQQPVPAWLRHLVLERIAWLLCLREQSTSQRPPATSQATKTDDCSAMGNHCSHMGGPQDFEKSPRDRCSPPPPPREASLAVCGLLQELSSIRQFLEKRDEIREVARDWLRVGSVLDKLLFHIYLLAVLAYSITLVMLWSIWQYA

[30] = target: Serine/threonine-protein kinase PAK 1 (Homo sapiens) (UniProt Q13153); details: Compound concentration 1000.0 nM
Serine/threonine-protein kinase PAK 1 (Homo sapiens), sequence (Q13153 whole entry): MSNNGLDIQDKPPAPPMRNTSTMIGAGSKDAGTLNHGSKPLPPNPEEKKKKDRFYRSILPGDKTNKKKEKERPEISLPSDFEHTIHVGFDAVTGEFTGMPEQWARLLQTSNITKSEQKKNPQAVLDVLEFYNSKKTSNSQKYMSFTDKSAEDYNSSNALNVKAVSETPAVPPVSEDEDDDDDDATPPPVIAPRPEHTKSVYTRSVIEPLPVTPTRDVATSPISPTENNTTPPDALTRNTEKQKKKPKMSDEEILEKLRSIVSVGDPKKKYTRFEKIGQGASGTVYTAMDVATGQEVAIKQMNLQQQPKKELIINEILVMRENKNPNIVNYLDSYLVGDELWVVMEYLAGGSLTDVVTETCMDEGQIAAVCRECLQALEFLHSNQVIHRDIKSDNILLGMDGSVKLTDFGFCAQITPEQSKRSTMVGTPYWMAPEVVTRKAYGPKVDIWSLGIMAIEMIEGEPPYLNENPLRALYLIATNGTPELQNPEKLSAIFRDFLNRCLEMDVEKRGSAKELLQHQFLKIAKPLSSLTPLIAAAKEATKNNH

[31] = target: D(3) dopamine receptor (Homo sapiens) (UniProt P35462); details: Compound concentration 10.0 uM
[32] = tested on: Receptor-type tyrosine-protein kinase FLT3 (Homo sapiens), P36888 [D835V]; details: Compound concentration 1000.0 nM

O=C(NCc1ncc(C(F)(F)F)cc1Cl)c1ccc2c(c1)C1(CCS(=O)(=O)CC1)[C@H](C1CC1)N2S(=O)(=O)c1ccc(F)cc1 [BAY-784]
inactive: residual activity [1] 100% | residual activity [2] 91% | residual activity [3] 90% | residual activity [4] 95% | residual activity [5] 100% | residual activity [6] 90% | residual activity [7] 64% | residual activity [8] 81% | residual activity [9] 92% | residual activity [10] 100% | residual activity [11] 83% | residual activity [12] 100% | residual activity [13] 100% | residual activity [14] 76% | residual activity [15] 97% | residual activity [16] 89% | inhibition [17] 12.8% | residual activity [18] 100% | residual activity [19] 90% | residual activity [20] 100% | residual activity [21] 71% | inhibition [22] 10.4% | residual activity [23] 100% | residual activity [24] 100% | residual activity [25] 92% | residual activity [26] 100% | residual activity [27] 100% | residual activity [28] 100% | inhibition [29] 1.44% | residual activity [30] 100% | inhibition [31] 9.45% | residual activity [32] 70%

O=C(NCc1ncc(C(F)(F)F)cc1Cl)c1ccc2c(c1)C1(CCS(=O)(=O)CC1)[C@@H](C1CC1)N2S(=O)(=O)c1ccc(F)cc1 [BAY-786]
inactive: residual activity [1] 100% | residual activity [2] 94% | residual activity [3] 84% | residual activity [4] 94% | residual activity [5] 100% | residual activity [6] 79% | residual activity [7] 56% | residual activity [8] 72% | residual activity [9] 84% | residual activity [10] 84% | residual activity [11] 74% | residual activity [12] 63% | residual activity [13] 77% | residual activity [14] 87% | residual activity [15] 96% | residual activity [16] 89% | inhibition [17] 15.7% | residual activity [18] 100% | residual activity [19] 84% | residual activity [20] 100% | residual activity [21] 60% | inhibition [22] -1.55% | residual activity [23] 84% | residual activity [24] 84% | residual activity [25] 86% | residual activity [26] 100% | residual activity [27] 100% | residual activity [28] 73% | inhibition [29] -1.68% | residual activity [30] 80% | inhibition [31] 3.82% | residual activity [32] 76%

Reference: ChEMBL document CHEMBL4507266, “Data for DCP probe BAY-784” (2021)
